Experimental data as given in patent US20250041245A1, “ENDOXIFEN FOR TREATMENT OF CANCERS” (Atossa Therapeutics, Inc., priority 2021, published 2025).
Where “and” joins values, the source holds several entries; their conditions need not be identical. Identical values can stand only once. Entries after “also recorded” stand apart in the source; their conditions may differ.

How the values were obtained:
Assay type in all cases: cell-based, human
[1] = test system: patient-derived tumor organoids (PDTOs), cervical carcinoma; experiment: Endoxifen screen in PDTOs: cervical carcinoma; set-up: key to Personalization Category: Personalization categories range from High, Good, Moderate, Low, to None; Personalization categories range from High, Good, Moderate, Low, to None; Personalization categories range from High, Good, Moderate, Low, to None; Personalization categories range from High, Good, Moderate, Low, to None; Personalization categories range from High, Good, Moderate, Low, to None; key to Sensitivity Category: Sensitivity categories range from High, Good, Moderate, Low, to None; Sensitivity categories range from High, Good, Moderate, Low, to None; Sensitivity categories range from High, Good, Moderate, Low, to None; Sensitivity categories range from High, Good, Moderate, Low, to None; Sensitivity categories range from High, Good, Moderate, Low, to None; AUC: unit not given beside the values
Experimental: (§1) This example describes screening endoxifen in patient-derived tumor organoids. Endoxifen was tested as a single agent on tumor organoids derived from patients diagnosed with various cancer types using a personalized cancer treatment screening assay (PARIS© Test, SEngine Precision Medicine). The screen utilized patient-derived tumor organoids (PDTOs) along with high-throughput drug screening and machine learning-guided data analysis to quantify the efficacy of endoxifen against samples derived from individual patients diagnosed with various cancer types. PDTOs are self-organizing, three-dimensional organoid structures that recapitulate structural, functional, and genomic aspects of in vivo organs. The PDTOs were grown in culture from patient tumor biopsy samples.
(§2) Fresh patient biopsy samples received following surgery were cleaned and purified. Immune cells (e.g., lymphocytes, blood cells), cancer-associated fibroblasts, and other non-tumor cells were removed to establish pure PDTOs for endoxifen testing. The tumor organoids were grown and expanded by supplying organ- and patient-specific growth factors and nutrients. The PDTOs were treated with increasing concentrations of endoxifen ranging from about 30 nM to about 10 μM, and the drug response was measured using a luminescence readout. A lower luminescence was indicative of a stronger drug response.
(§3) The results were analyzed using a “SEngine Precision Medicine” (SPM) scoring system to assess the sensitivity and personalization of each tumor organoid to endoxifen. The SPM score correlates with clinical outcomes, such that a higher SPM score for a specific PDTO-drug combination predicts a more favorable clinical outcome following treatment of the corresponding patient with the tested drug.
(§4) This example describes testing endoxifen efficacy against 17 distinct cancer types in patient-derived tumor organoids (PDTOs). Screening of PDTOs was performed as described in EXAMPLE 1. For each PDTO sample, the drug response was measured using a luminescent readout over a range of endoxifen concentrations. The drug response was evaluated based on the area under the fitted dose response curve (AUC) and the SPM scoring system. AUC values were normalized for each PDTO. Briefly, data points at each drug concentration were first normalized to a negative control, then a dose response drug curve was approximated using a four-parameter logistic model fitted to the normalized data points. The area under the curve was calculated from the normalized curve. Normalization allowed for comparison of AUC values between patient samples. The SPM scores were based on machine learning models that incorporate values for how well the drug kill patient cells (sensitivity metric), the relative drug responses of a patient to all other patients in a sample database (personalization metric), and knowledge of clinical outcomes for patients that had been evaluated with the personalized cancer screening assay (PARIS® Test, SEngine Precision Medicine).
(§5) The SPM scoring system evaluated whether a PDTO was unresponsive or responsive to endoxifen and the degree of drug response for PDTOs that were responsive to endoxifen. […] The sensitivity category was determined from the sensitivity metric and is a measure of overall cell death of a patient's cells in response to endoxifen at six concentrations. […]

[2] = test system: patient-derived tumor organoids (PDTOs), melanoma; experiment: Endoxifen screen in PDTOs: melanoma; set-up: key to Personalization Category: Personalization categories range from High, Good, Moderate, Low, to None; Personalization categories range from High, Good, Moderate, Low, to None; Personalization categories range from High, Good, Moderate, Low, to None; Personalization categories range from High, Good, Moderate, Low, to None; Personalization categories range from High, Good, Moderate, Low, to None; key to Sensitivity Category: Sensitivity categories range from High, Good, Moderate, Low, to None; Sensitivity categories range from High, Good, Moderate, Low, to None; Sensitivity categories range from High, Good, Moderate, Low, to None; Sensitivity categories range from High, Good, Moderate, Low, to None; Sensitivity categories range from High, Good, Moderate, Low, to None; AUC: unit not given beside the values
Experimental: as §1, §2, §3, §4
The SPM scoring system evaluated whether a PDTO was unresponsive or responsive to endoxifen and the degree of drug response for PDTOs that were responsive to endoxifen. The SPM scoring system generated metrics an SPM score, predictive of clinical outcome, overall drug response (response category), drug sensitivity (sensitivity category), and drug personalization (personalization category). SPM scores ranged from 1-15, corresponding to the following drug response categories: no response (SPM 1-8), low response (SPM 9), moderate response (SPM 10-11), good response (SPM 12-13), and exceptional response (SPM 14-15). […] Moderate to good drug responses (SPM 10-13) may indicate that a drug has clinical relevance, possibly in combination with other drugs. The sensitivity category was determined from the sensitivity metric and is a measure of overall cell death of a patient's cells in response to endoxifen at six concentrations. […]

[3] = test system: patient-derived tumor organoids (PDTOs), sarcoma; experiment: Endoxifen screen in PDTOs: sarcoma; set-up: key to Personalization Category: Personalization categories range from High, Good, Moderate, Low, to None; Personalization categories range from High, Good, Moderate, Low, to None; Personalization categories range from High, Good, Moderate, Low, to None; Personalization categories range from High, Good, Moderate, Low, to None; Personalization categories range from High, Good, Moderate, Low, to None; AUC: unit not given beside the values
Experimental: as §1
as §2, with “The tumor organoids were grown and expanded by supplying organ- and patient-specific growth factors and nutrients.” left out
(§6) The results were analyzed using a “SEngine Precision Medicine” (SPM) scoring system to assess the sensitivity and personalization of each tumor organoid to endoxifen. […]
This example describes testing endoxifen efficacy against 17 distinct cancer types in patient-derived tumor organoids (PDTOs). […] For each PDTO sample, the drug response was measured using a luminescent readout over a range of endoxifen concentrations. The drug response was evaluated based on the area under the fitted dose response curve (AUC) and the SPM scoring system. […] The area under the curve was calculated from the normalized curve. […]
The SPM scoring system evaluated whether a PDTO was unresponsive or responsive to endoxifen and the degree of drug response for PDTOs that were responsive to endoxifen. […]

[4] = test system: patient-derived tumor organoids (PDTOs), esophageal adenocarcinoma; experiment: Endoxifen screen in PDTOs: esophageal adenocarcinoma; set-up: key to Personalization Category: Personalization categories range from High, Good, Moderate, Low, to None; Personalization categories range from High, Good, Moderate, Low, to None; Personalization categories range from High, Good, Moderate, Low, to None; Personalization categories range from High, Good, Moderate, Low, to None; Personalization categories range from High, Good, Moderate, Low, to None; AUC: unit not given beside the values
Experimental: as §1, §2, §6
as §4, with “Screening of PDTOs was performed as described in EXAMPLE 1.” left out, “AUC values were normalized for each PDTO. Briefly, data points at each drug concentration were first normalized to a negative control, then a dose response drug curve was approximated using a four-parameter logistic model fitted to the normalized data points.” left out, “Normalization allowed for comparison of AUC values between patient samples.” left out
as §5

[5] = melanoma PDTOs, each line one patient sample

- IC50 ([1]; Homo sapiens, Patient 10, four-parameter logistic fit): 3.48 µM
- IC50 ([2]; Homo sapiens, skin cancer organoid assays, multiple skin cancers (summary statement)): < 10 µM
- IC50 ([2]; melanoma PDTOs, each line one patient sample, four-parameter logistic fit): 2.74 µM and 3.3 µM and 1.44 µM and 7.06 µM
- IC50 ([4]; Homo sapiens, Patient 14, four-parameter logistic fit): 3.97 µM
SMILES: CC/C(=C(\c1ccc(O)cc1)c1ccc(OCCNC)cc1)c1ccccc1 [Endoxifen, 4-hydroxy-N-desmethyltamoxifen]
- Personalization Category ([1]; Patient 10): Good
- Sensitivity Category ([1]; Patient 10): Low
- AUC ([1]; Patient 10, normalized area under fitted dose response curve): 0.8002
- SPM Score ([1]; Patient 10, score range 1-15): 11
- Personalization Category [2, 5]: Low and Good and High
- Response Category [2, 5]: Low (low response (SPM 9)); also recorded: Moderate (moderate response (SPM 10-11)); also recorded: Good (good response (SPM 12-13))
- Sensitivity Category [2, 5]: Low and Moderate
- AUC ([2]; melanoma PDTOs, each line one patient sample, normalized area under fitted dose response curve): 0.8952 and 0.7865 and 0.6541 and 0.8094
- SPM Score ([2]; melanoma PDTOs, each line one patient sample, score range 1-15): 9 and 11 (2×) and 13
- Personalization Category ([3]; patient 21): None
- AUC ([3]; patient 21, normalized area under fitted dose response curve): 0.9995
- SPM Score ([3]; patient 21, score range 1-15): 1
- Personalization Category ([4]; Patient 14): Good
- AUC ([4]; Patient 14, normalized area under fitted dose response curve): 0.7771
- SPM Score ([4]; Patient 14, score range 1-15): 11
